One assay has as its target pig pancreatic lipase (Sus scrofa (Pig), UniProt P00591). The experiment in a line: Pancreatic lipase inhibiting activity (p-nitrophenylbutyrate hydrolysis). It is filed as biochemical. The procedure: To investigate obesity treating effect of the novel rotenoisin A and B, each represented by formula 2 and formula 3 isolated and purified in <Example 2>, pancreatic lipase inhibiting activity of the same was measured.
Particularly, pancreatic lipase inhibiting activity was measured by the conventional method known to those in the art (Kim, J. H.; Kim, H. J.; Park, H. W.; Youn, S. H.; Choi, D. Y.; Shin, C. S. FEMS Microbiol. Lett. 2007, 276, 93.). To prepare the enzyme buffer, […] (10 units) of pig pancreatic lipase solution (Sigma, St. Louis, Mo.) and 1 mM EDTA (pH 6.8) were mixed with 10 mM MOPS (morpholinepropanesulphonic acid), which was added to […] of tris buffer (100 mM Tris-HCl and 5 mM CaCl2, pH 7.0). Then, […] of the rotenoisin A or B of the present invention was mixed with the prepared enzyme buffer at the experimental concentration. […] 20 mL of substrate solution containing 20 mM p-nitrophenylbutyrate dissolved in dimethyl formaide was added to the enzyme buffer, followed by culture for 15 minutes at 37° C. that was the temperature adequate for enzyme reaction. Pancreatic lipase activity was measured by measuring the hydrolysis of p-nitrophenylbutyrate into p-nitrophenol using an ELISA reader (Infinite F200; Tecan Austria GmBH, Grodig, Austria).

The subject of a further assay is 3T3-L1 preadipocytes. The experiment in a line: Inhibition of differentiation of 3T3-L1 preadipocyte to adipocyte (oil red O staining). It counts as cell-based, mouse. The following applies: 3T3-L1 cell line, concentration of 2 μM. The procedure: To investigate inhibition effect on adipocyte differentiation in 3T3-L1 preadipocytes, mouse embryo fibroblasts were cultured in DMEM supplemented with 10% FBS to confluency. Two days later (Day 0), the cells were stimulated for the differentiation in DMEM, the differentiation medium supplemented with 10% FBS, 0.5 mM 3-isobutyl-1-methyl-xanthine, […], and […] (Day 2). For the next 6 days, the cells were cultured in DMEM supplemented with 10% FBS and 2 mM insulin (Day 8), followed by further culture in DMEM supplemented with 10% FBS for […] (Day 8). Every medium was added with 100 IU/ml of penicillin and […] of streptomycin. The cells were cultured in the presence of 95% air and 5% CO2. During the whole culture period (Day 0˜Day 8), the treatment of the rotenoisin A and B (2, 0.2, 0.02 uM) of the present invention was performed by the conventional method known to those in the art (Liu, Q.; Shin, E.; Ahn, M. J.; Hwang, B. Y.; Lee, M. K. Nat. Prod. Sci. 2011, 17, 212.) with slight modification. […]
Particularly, intracellular fat lump was stained with oil red O. 8 days after the induction of cell differentiation, the cells were washed with […] twice, followed by fixing in 10% formalin for 1 hour at room temperature. […] For quantitative analysis, oil red O was dissolved with isopropyl alcohol, followed by measuring OD500 using an ELISA reader.

Bounds are passed on as bounds.

Chain of pig pancreatic lipase (P00591 whole entry): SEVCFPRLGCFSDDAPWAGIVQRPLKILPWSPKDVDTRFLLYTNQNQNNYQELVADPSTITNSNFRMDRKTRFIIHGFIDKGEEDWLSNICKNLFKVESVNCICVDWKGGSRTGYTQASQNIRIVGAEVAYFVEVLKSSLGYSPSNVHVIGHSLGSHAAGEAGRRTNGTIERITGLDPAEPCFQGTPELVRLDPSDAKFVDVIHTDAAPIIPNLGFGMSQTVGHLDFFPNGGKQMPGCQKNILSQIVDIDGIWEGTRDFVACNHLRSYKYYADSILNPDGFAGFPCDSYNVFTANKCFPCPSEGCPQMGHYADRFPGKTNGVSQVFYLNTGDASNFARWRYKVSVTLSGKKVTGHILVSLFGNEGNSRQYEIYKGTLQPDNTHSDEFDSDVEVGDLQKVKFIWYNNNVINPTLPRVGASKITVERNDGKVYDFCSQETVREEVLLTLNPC

Turning to `C=C(C)[C@H]1Cc2c(ccc3c2O[C@@H]2COc4cc(OC)c(OC)cc4[C@@H]2C32CO2)O1` (some centres unmarked) [rotenoisin A], the IC50 – broadly, the concentration that inhibits the measured activity by half – against pig pancreatic lipase turned out to be 6.3 ± 0.3 µM. Moreover, the “adipocyte differentiation inhibiting activity” value in the assay on 3T3-L1 preadipocytes (Day 8) is “approximately 70%”. The inhibition at 2 µM in the assay on 3T3-L1 preadipocytes (Mus musculus, 192 h, Day 8, read-out: adipocyte differentiation inhibiting activity) is about 70%.

As for `C=C(C)[C@H]1Cc2c(ccc3c2O[C@@H]2COc4cc(OC)c(OC)cc4[C@@H]2[C@]32CC3O[C@]3(O)[C@@H](O)O2)O1` (some centres unmarked) [rotenoisin B], the IC50 on pig pancreatic lipase was found to be 28.4 ± 1.2 µM.

On to `C=C(C)[C@H]1Cc2c(ccc3c2O[C@@H]2COc4cc(OC)c(OC)cc4[C@@H]2C3=O)O1` [rotenone], for which the IC50 against pig pancreatic lipase was over 500 µM.
